In the SangsterLogP compilation:

test: method code SF-AS, from Mauleón, D.; Pujol, M.; Rosell, G. (1988). B-Adrenergic antagonists: N-alkyl and N-amidoethyl (arylalkoxy)propanolamines related to propranolol. Eur J Med Chem, 23, 421-426.

Row | logP | SMILES
1 | 0.63 | CC(C)C(=O)NCCNCC(O)COCc1ccccc1 (stereo unspecified)
2 | 1.5 | CC(C)(C)NCC(O)COc1ccccc1 (stereo unspecified)
3 | 2.51 | CC(C)(C)NCC(O)COCCc1ccccc1 (stereo unspecified)
4 | 3.55 | CC(C)(C)NCC(O)COC1CCCc2ccccc21 (stereo unspecified)
5 | 0.75 | O=C(Cc1ccccc1)NCCNCC(O)COCCOc1ccccc1 (stereo unspecified)
6 | 3.42 | CC(C)NCC(O)COC1CCCc2ccccc21 (stereo unspecified)
7 | 1.76 | CC(C)NCC(O)COCCc1ccccc1 (stereo unspecified)
8 | 0.63 | O=C(Cc1ccccc1)NCCNCC(O)COc1ccccc1 (stereo unspecified)
9 | 1.14 | CC(C)C(=O)NCCNCC(O)COc1ccccc1 (stereo unspecified)
10 | 1.54 | CC(C)NCC(O)COCCCc1ccccc1 (stereo unspecified)
11 | 0.51 | CC(C)C(=O)NCCNCC(O)COCC=Cc1ccccc1 (stereo unspecified)
12 | 1.99 | CC(C)C(=O)NCCNCC(O)COC1CCCc2ccccc21 (stereo unspecified)
13 | 0.48 | CC(C)C(=O)NCCNCC(O)COCCOc1ccccc1 (stereo unspecified)
14 | 1.7 | CC(C)(C)NCC(O)COCc1ccccc1 (stereo unspecified)
15 | 1.68 | O=C(Cc1ccccc1)NCCNCC(O)COC1CCCc2ccccc21 (stereo unspecified)
16 | 2.29 | CC(CCCOCC(O)CNC(C)(C)C)c1ccccc1 (stereo unspecified)
17 | 1.63 | CC(C)NCC(O)COCCOc1ccccc1 (stereo unspecified)
18 | 1.25 | CC(C)C(=O)NCCNCC(O)COCCCc1ccccc1 (stereo unspecified)
19 | 2.35 | CC(C)(C)NCC(O)COCCOc1ccccc1 (stereo unspecified)
20 | 2.15 | CC(C)NCC(O)COC/C=C/c1ccccc1 (stereo unspecified)
21 | 1.24 | O=C(Cc1ccccc1)NCCNCC(O)COCCc1ccccc1 (stereo unspecified)
22 | 1.76 | O=C(Cc1ccccc1)NCCNCC(O)COCC=Cc1ccccc1 (stereo unspecified)
23 | 1.05 | O=C(Cc1ccccc1)NCCNCC(O)COCc1ccccc1 (stereo unspecified)
24 | 1.62 | CC(C)NCC(O)COCc1ccccc1 (stereo unspecified)
25 | 2.95 | CC(C)NCC(O)COCCCC(C)c1ccccc1 (stereo unspecified)
26 | 0.95 | CC(C)C(=O)NCCNCC(O)COCCc1ccccc1 (stereo unspecified)
